PubChem BioAssay (NCI)
Values joined by “and” are separate entries in the source; they are usually repeats but may differ in a detail not shown here. Equal values may be shown once.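 Dose response: 5 concentrations. Exposure: 48 h. Format: 96-well plates. Endpoint: linear interpolation; highest concentration if not reached. GI50 is the concentration that inhibits growth by half. The concentration for full growth arrest is given as TGI.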

Tests used:
Assay in all cases: growth of human tumour cells (NCI), 48 h
OVCAR-3 ovarian = test system: OVCAR-3 ovarian
SN12C renal = test system: SN12C renal
A498 renal = test system: A498 renal
MOLT-4 leukemia = test system: MOLT-4 leukemia
SK-MEL-5 melanoma = test system: SK-MEL-5 melanoma
CCRF-CEM leukemia = test system: CCRF-CEM leukemia
HCT-116 colon = test system: HCT-116 colon
TK-10 renal = test system: TK-10 renal
PC-3 prostate = test system: PC-3 prostate
HOP-92 NSCLC = test system: HOP-92 NSCLC

SMILES	GI50 (OVCAR-3 ovarian)	TGI (OVCAR-3 ovarian)	GI50 (SN12C renal)	TGI (SN12C renal)	GI50 (A498 renal)	TGI (A498 renal)	GI50 (MOLT-4 leukemia)	TGI (MOLT-4 leukemia)	GI50 (SK-MEL-5 melanoma)	TGI (SK-MEL-5 melanoma)	GI50 (CCRF-CEM leukemia)	TGI (CCRF-CEM leukemia)	GI50 (HCT-116 colon)	TGI (HCT-116 colon)	GI50 (TK-10 renal)	TGI (TK-10 renal)	GI50 (PC-3 prostate)	TGI (PC-3 prostate)	GI50 (HOP-92 NSCLC)	TGI (HOP-92 NSCLC)
Cl.[Pt].[c-]1ccccc1-c1ccccn1.c1ccc(P(c2ccccc2)C([PH+](c2ccccc2)c2ccccc2)[PH+](c2ccccc2)c2ccccc2)cc1	1.59 µM	7.99 µM	0.942 µM	7.03 µM	1.85 µM	5.89 µM	2.13 µM	11.6 µM	1.25 µM	2.8 µM	2.4 µM	> 100 µM	1.58 µM	7.11 µM	1.74 µM	15.5 µM	0.683 µM	15.3 µM	1.41 µM	5.18 µM
Oc1ccc2oc3ncc(Cl)c(-c4ccccc4)c3c2c1	> 100 µM	> 100 µM	> 100 µM	> 100 µM	> 100 µM	> 100 µM	> 100 µM	> 100 µM	> 100 µM	> 100 µM	21.2 µM	63.2 µM	> 100 µM	> 100 µM	> 100 µM	> 100 µM	> 100 µM	> 100 µM	> 100 µM	> 100 µM
Cc1ccc(Cl)cc1Nc1nc(C(F)(F)F)ccc1C(=O)Nc1cccc(C(F)(F)F)c1	4.18 µM	20.1 µM	4.29 µM	18.7 µM	2.97 µM	8.59 µM	2.77 µM	10 µM	2.18 µM	4.5 µM	2.8 µM	11 µM	2.39 µM	10.3 µM	5.58 µM	17.8 µM	2.07 µM	13.4 µM	2.2 µM	8.69 µM
O=C(O)c1c(O)c2cc(Br)ccc2oc1=O	–	> 100 µM	–	> 100 µM	–	> 100 µM	–	> 100 µM	–	> 100 µM	–	> 100 µM	–	> 100 µM	–	> 100 µM	–	> 100 µM	–	> 100 µM
O=C1NC(=O)/C(=C/C=C/c2ccccc2)S1	2.88 µM	33.1 µM	2.05 µM	> 100 µM	0.373 µM	18.8 µM	2.08 µM	> 72 µM	2.58 µM	22.5 µM	2.01 µM	> 100 µM	2.36 µM	18.6 µM	28.6 µM	> 100 µM	19.4 µM	> 100 µM	11.1 µM	> 81.1 µM
COc1ccc(SC2c3cc(OC)c(OC)cc3Oc3nc(N)c(C#N)c(N)c32)cc1 (configuration not stated)	1.06 µM	2.31 µM	–	–	1.42 µM	2.85 µM	0.315 µM	1.6 µM	1.5 µM	2.82 µM	–	–	0.68 µM	2.16 µM	1.63 µM	3.01 µM	1.16 µM	2.49 µM	1.24 µM	2.72 µM
CC1(C)N=C(N)N=C(N)N1c1cccc(C#N)c1	19 µM	> 100 µM	6.1 µM	> 100 µM	20.9 µM	> 100 µM	3.21 µM	> 100 µM	8.1 µM	> 100 µM	3.05 µM	> 100 µM	0.364 µM	> 100 µM	18.2 µM	> 100 µM	2.66 µM	> 100 µM	–	–
Nc1[nH]c(=O)ncc1F	–	> 100 µM	–	> 100 µM	–	> 100 µM	–	> 100 µM	–	> 100 µM	–	–	–	> 100 µM	–	> 100 µM	–	> 100 µM	–	> 100 µM
C[C@]12O[C@H](C[C@]1(O)CO)n1c3ccccc3c3c4c(c5c6ccccc6n2c5c31)CNC4=O	0.37 µM and 0.391 µM	3.31 µM and 2.76 µM	0.0382 µM and 0.0293 µM	2.01 µM and 2.35 µM	0.013 µM and 0.0148 µM	0.114 µM and 0.0943 µM	0.0386 µM and 0.0457 µM	0.451 µM and 1.18 µM	0.398 µM and 0.0869 µM	2.06 µM and 1.84 µM	0.0501 µM and 0.0461 µM	–	0.0291 µM and 0.0408 µM	–	0.0223 µM and 0.0189 µM	1.07 µM and 0.744 µM	0.0846 µM and 0.133 µM	> 5.89 µM and 3.9 µM	0.0422 µM and 0.174 µM	0.65 µM and 1.16 µM
S=c1nc[nH]c2c1ncn2Cc1ccco1	–	> 100 µM	–	> 100 µM	–	> 100 µM	–	> 100 µM	–	> 100 µM	–	–	–	> 100 µM	–	> 100 µM	–	> 100 µM	–	> 100 µM
CCSc1oc(-c2ccccc2)nc1[P+](c1ccccc1)(c1ccccc1)c1ccccc1	0.268 µM	1.7 µM	0.298 µM	1.23 µM	0.126 µM	0.579 µM	–	–	0.164 µM	0.315 µM	0.32 µM	3.21 µM	0.218 µM	3.42 µM	0.258 µM	2.66 µM	0.213 µM	1.44 µM	0.15 µM	0.551 µM
S=c1nc(-c2nc(=S)[nH]c3c2CCCCCCCCCC3)c2c([nH]1)CCCCCCCCCC2	–	> 100 µM	–	> 100 µM	–	> 100 µM	–	> 100 µM	–	> 100 µM	–	–	–	> 100 µM	–	> 100 µM	–	> 100 µM	–	> 100 µM
COc1ccc2c(c1)CCC1C2CC[C@@]2(C)C1CC[C@@]2(O)CNC(=O)/C=C/c1ccc(O)c(OC)c1 (some centres not stated)	37.5 µM	> 100 µM	24.3 µM	> 100 µM	23 µM	54.5 µM	–	–	18.2 µM	46.6 µM	0.932 µM	> 100 µM	19 µM	> 100 µM	6.86 µM	> 100 µM	12.1 µM	83.8 µM	14.9 µM	60 µM
CC(=O)Oc1ccc(OC(C)=O)c2ccccc12	3.55 µM	12.9 µM	14 µM	27.5 µM	19.2 µM	48.4 µM	2.46 µM	8.38 µM	13.5 µM	26.4 µM	–	–	3.59 µM	12.9 µM	17.2 µM	31.5 µM	6.24 µM	25.6 µM	1.49 µM	3.05 µM
C(=N\Nc1nnc2c(n1)[nH]c1ccccc12)/c1cccnc1	–	> 100 µM	–	> 100 µM	–	> 100 µM	–	> 100 µM	–	> 100 µM	–	–	–	> 100 µM	–	> 100 µM	–	> 100 µM	–	> 100 µM
